Experimental data reported in PubChem BioAssay (NCI).
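Results reflect a 48-hour exposure of cells in 96-well plates to compound at five concentrations. TGI is the concentration that stops growth completely.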

How the values were obtained:
Assay in all cases: growth of human tumour cells (NCI), 48 h
SF-295 CNS = system: SF-295 CNS
SK-MEL-5 melanoma = system: SK-MEL-5 melanoma
OVCAR-4 ovarian = system: OVCAR-4 ovarian
SF-539 CNS = system: SF-539 CNS
K-562 leukemia = system: K-562 leukemia
HT29 colon = system: HT29 colon
KM12 colon = system: KM12 colon
NCI-H226 lung = system: NCI-H226 lung
MDA-MB-435 = system: MDA-MB-435
T-47D breast = system: T-47D breast

| Structure (SMILES) | TGI (SF-295 CNS) [µM] | TGI (SK-MEL-5 melanoma) [µM] | TGI (OVCAR-4 ovarian) [µM] | TGI (SF-539 CNS) [µM] | TGI (K-562 leukemia) [µM] | TGI (HT29 colon) [µM] | TGI (KM12 colon) [µM] | TGI (NCI-H226 lung) [µM] | TGI (MDA-MB-435) [µM] | TGI (T-47D breast) [µM] |
| --- | --- | --- | --- | --- | --- | --- | --- | --- | --- | --- |
| Cc1cc2c(=O)c3ccc(Cl)cc3[nH]c2c(C(N)=O)c1C | > 100 | > 100 | > 100 | > 100 | > 100 | > 100 | > 100 |  |  |  |
| N/N=C(/N)SCCCCCCCCCCS/C(N)=N/N | 60.9 | 49 |  | > 100 | 32.3 | 27.7 | 67.3 | 83.1 | > 100 | 35.4 |
| O=c1[nH]n(CCc2ccccc2CCl)c2ccc([N+](=O)[O-])cc12 | > 100 | > 100 | 92 | > 100 | > 100 | > 100 | > 100 | > 100 | > 100 |  |
| Cc1ccc(S(=O)(=O)OCCC2CN(C(=O)OCc3ccccc3)C(C)(C)O2)cc1 (centres undefined) | > 100 | 8.76 | > 100 | > 100 | > 100 |  | 12.4 | 4.35 | 22.5 |  |
| O=c1cc(N2CCOCC2)n2c(ccc3ccccc32)n1 | > 100 | > 100 |  | > 100 | > 100 | > 100 | > 100 | > 100 | > 100 | > 100 |
| O=C1c2ccncc2C(=O)c2c(O)ccc(O)c21 | 25.1 |  | 23.6 | 13.4 | 55.5 | 7.74 | 32.8 | 29.4 |  |  |
| COc1c(C)c(C/C=C(\C)CCCC(C)CCCC(C)CCCC(C)C)c(OC)c2ccccc12 (centres undefined) | > 100 | > 100 | > 100 | > 100 | > 100 | > 100 | > 100 |  | > 100 |  |
| CCOC(=O)C1CCC(=O)N1C(=O)c1cccc(Cl)c1 (centres undefined) | > 100 | > 100 |  | > 100 | > 100 | > 100 | > 100 | > 100 | > 100 | > 100 |
| Oc1c(Cl)cc2cc1-c1cc(cc(Cl)c1O)CCc1c(cc(Cl)c(O)c1Cl)-c1cc(Cl)c(c(Cl)c1O)/C=C\2 |  | 14.9 | 24 |  | > 50 | 25.2 | 15.1 | 22.5 | 21.7 | 19.2 |
| CCCC1=C(OC)C(=O)c2c(C)cc(Cl)nc2C1=O | 31.9 | 16.7 | 19.5 | 20.3 |  | 8.45 | 18.1 | 33.2 | 3.45 | 9.83 |
| CC(CCc1nc2ccccc2s1)(c1ccc(O)cc1)c1ccc(O)cc1 | 28.9 | 33.1 | 37 |  | 47.2 | 38.4 | 33.8 | 41.1 | 30.8 | 95.2 |
| O=c1c2ccccc2nc(N/N=C/c2ccc([N+](=O)[O-])cc2)n1-c1ccccc1 | 62.2 | > 100 | > 100 |  | > 100 | > 100 | > 100 | > 100 | > 100 | > 100 |
| [N-]=[N+]=Nc1nc2ccccc2c(N=[N+]=[N-])c1Cl | > 100 | > 100 | > 100 | > 100 | > 100 | > 100 | > 100 |  | > 100 | > 100 |
| C=CC(C)(C)/C=C/c1ccc(O)cc1 | > 100 | > 100 | > 100 | > 100 |  | > 100 | > 100 |  | > 100 | 95 |
| Cc1cc2c(c(C(=O)NCC(=O)O)c1)Oc1c(cc(C)cc1C(=O)NCC(=O)O)S2 | > 100 |  | > 100 | > 100 | > 100 | > 100 | > 100 | > 100 | > 100 | > 100 |
| O=CC(O)C(O)C(O)C(O)COC(=O)NCCCCC(=O)C(F)(F)C(F)(F)C(F)(F)C(F)(F)C(F)(F)C(F)(F)C(F)(F)F (centres undefined) | 59.3 | 86.8 | > 100 | 39.2 | 58.5 | > 100 | 46.4 |  | 62.4 | > 100 |
| C/C(=N\Nc1nc2ccccc2[nH]1)c1ncccn1 | > 100 | 1.34 | > 100 | 0.0543 | > 100 |  | > 46.9 |  |  | > 100 |
| CC(=O)OCC1OC(SC2=NC(=O)CS2)C(OC(C)=O)C(OC(C)=O)C1OC(C)=O (centres undefined) | > 100 | > 100 |  | > 100 | > 100 | > 100 | > 100 | > 100 | > 100 | > 100 |
| Cc1ccc(N2C(=O)C3CSCN3C2=O)cc1 (centres undefined) | > 100 | > 100 | > 100 | > 100 | > 100 | > 100 | > 100 | > 100 |  |  |
| O=C1Nc2cccc(Cl)c2/C1=C\c1c(-c2ccccc2)nc2n1CCS2 | > 100 | 51.6 |  | 36 | 55.1 | 42.5 | 52.1 |  | 36.5 | 48.9 |
| CC(C)[C@H](C)/C=C/[C@@H](C)C1CC[C@H]2[C@@]34C=C[C@]5(C[C@@H](O)CC[C@]5(C)[C@H]3CC[C@]12C)OO4 (some centres undefined) | > 100 | 62.2 | > 100 | > 100 |  | 53.7 | > 100 | 49.9 | 91.6 | > 100 |
| C/C(=C\Cc1ccc(F)cc1)CCCCCC/C(C)=C/Cc1ccc(F)cc1 | 24.6 | 27.8 | 34.2 | 31.8 | 28.5 | 33.3 | 5.61 |  | 39 |  |
| CC(=O)CC(=O)N1CCSC1=S | > 10 | > 10 |  | > 10 | > 10 | > 10 | > 10 | > 10 | > 10 | > 10 |
